“And” between values parts separate entries of the source, which are not always exact repeats. Equal values may be shown once.
System: refractory solid tumors
Experiment: Phase I trial outcome (PFS, OS)
Assay type: in vivo, human
Details: individual patient
Method: All patients provided written informed consent before entering the study. The study was conducted in accordance with the Declaration of Helsinki and with the principles of the International Conference on Harmonization Guidelines for Good Clinical Practice. The study protocol was approved by the local institutional board and an independent Ethics Committee.
Patients continued treatment until progression, intolerance, or withdrawal of consent. The primary outcomes of the phase I clinical trial were described previously.
Efficacy was assessed in patients who completed at least two weeks of treatment. […] Statistical significance was set at p < 0.05. All statistical analyses were performed in SPSS, version 25.

CCN(CC)CCNC(=O)c1c(C)[nH]c(/C=C2\C(=O)Nc3ccc(F)cc32)c1C [sunitinib]
OS (200 mg O1W): 119 days and 134 days | PFS (200 mg O1W): 77 days and 82 days | OS (300 mg O1W): 242 days and 154 days and 97 days and 93 days and 35 days and 59 days and 144 days and 226 days and 510 days and 377 days and 48 days and 45 days and 454 days and 78 days and 57 days | PFS (300 mg O1W): 77 days and 36 days and 66 days and 20 days and 92 days and 281 days and 42 days and 48 days and 49 days and 57 days | OS (300 mg O2W): 78 days and 76 days | PFS (300 mg O2W): 58 days and 61 days | OS (400 mg O1W): 26 days and 261 days and 817 days and 151 days and 132 days and 237 days and 169 days | PFS (400 mg O1W): 23 days and 239 days and 68 days and 51 days and 160 days | OS (400 mg O2W): 185 days and 23 days and 194 days | PFS (400 mg O2W): 57 days | OS (500 mg O2W): 257 days and 427 days | PFS (500 mg O2W): 57 days and 176 days and 54 days | OS (600 mg O2W): 353 days and 342 days | PFS (600 mg O2W): 56 days and 331 days and 93 days | OS (700 mg O2W): 86 days and 150 days and 428 days and 170 days and 91 days and 57 days and 142 days and 40 days and 526 days and 232 days and 125 days and 486 days and 400 days and 169 days and 74 days and 419 days and 148 days and 184 days and 333 days and 596 days and 93 days | PFS (700 mg O2W): 56 days and 77 days and 245 days and 170 days and 14 days and 57 days and 26 days and 168 days and 64 days and 60 days and 45 days and 334 days and 197 days and 318 days and 84 days | OS (800 mg O2W): 89 days and 32 days and 45 days and 243 days and 63 days and 62 days | PFS (800 mg O2W): 56 days and 194 days and 42 days
